# According to patent US11452781B2, “Method of preventing and treating type 1 diabetes, allograft rejection and lung fibrosis (by targeting the ATP/P2X7R axis)” (CHILDREN'S MEDICAL CENTER CORPORATION, priority 2013, dated 2022):
# “And” between values parts separate entries of the source, which are not always exact repeats. Equal entries are not always repeated. “Also recorded” adds a separate entry of the source.
# Legend:
# [1] = tested on: OT1 splenocytes (CD8 T cells); experiment: OT1 splenocytes stimulated with OVA peptide, proliferation; type: cell-based, mouse; conditions: oATP 100 μM
# Protocol: (§1) FIG. 16A depicts a graph of CD8 activation levels. To better assess the response of CD8 T cells, splenocytes isolated from OT1 mice were stimulated with OVA peptide with and without (positive control) oATP (100 μM) and T cell proliferation determined. […] FIG. 16C depicts photomicroscopy images and a graph of cell growth and survival. Freshly isolated human peripheral blood mononuclear cells (PBMCs, 4×10^5/ml) were applied onto pre-seeded A549 cells (at ˜20% confluency). Cells were cultured in RPMI medium supplemented with interferon gamma (IFNγ) with or without oATP for 7 days. […]
# (§2) Outcome Measures—In vivo assessment of transplanted lung function was performed by thoracic CT scan imaging and measuring peak airway pressures (PawP) as previously described {Bizargity, #22}. ATP levels were measured from transplanted lung bronchoalveolar lavage fluid (BAL) by bioluminescent detection using Enliten ATP assay system (FF2000, Promega Corporation, Madison, Wis.). […] Immunohistochemistry was performed on frozen lung tissue sections utilizing CD4 and CD8 antibodies and isotype controls and assessed based on the average of 10 high power fields/lung allograft. […]
# To assess the inhibitory actions of oATP upon CD8 cells, a CD8 specific response was analyzed by utilizing OT1 splenocytes stimulated with OVA peptide. […]
# [2] = tested on: A549 cells co-cultured with PBMCs; experiment: Cytotoxicity of human PBMC upon IFN-γ stimulated A549 cells, 7 days co-culture; type: cell-based; conditions: increasing doses of oATP
# Protocol: as §1, with “days. Shown are representative images of A549 cells, and A549 cells co-cultured with PBMCs in the presence and absence of 200 μM oATP. Images were taken on day 7 of the co-culture.” for “days.”
# as §2
# [3] = tested on: ABM CD4+ TCR-Tg T cells; experiment: Alloantigen-specific ABM CD4+ TCR-Tg T cells, bm12 hearts into C57BL/6 Rag-/- mice; type: in vivo, mouse
# Excerpt: To address whether the inhibition of the effector T-cell compartment is related to reduced priming and expansion of alloreactive T cells or to their increased apoptosis, alloreactive-specific T cells were tracked in a transgenic model of cardiac transplantation. Bm12 hearts were transplanted into C57BL/6 Rag−/− mice, and 3×10^6 ABM CD4+ TCR-Tg T cells (specific for bm12 major histocompatibility complex class II antigens) were subsequently adoptively transferred into cardiac transplant recipients.
# [4] = tested on: C57BL/6 mice transplanted with BALB/c islets; experiment: Allogeneic islet transplantation, BALB/c islets into diabetic C57BL/6 mice: graft survival; type: in vivo, mouse
# [5] = tested on: mouse CD8 T cells; experiment: Isolated CD8 T cells stimulated with anti-CD3, TNF-α, IFN-γ and granzyme B expression; type: cell-based; conditions: anti-CD3 10 μg/ml
substance,measurement,setting,value
periodate-oxidized ATP [oATP],allo-specific CD8 activation/proliferation,[1],dramatic reduction; also recorded: significant reduction
same,cytolytic activity of PBMC on A549 cells,[2],remarkable reduction
same,TCR-Tg T-cell apoptosis,[3]; 4 days following adoptive transfer,without substantial differences
same,ABM CD4+ TCR-Tg T-cell proliferation (CFSE dilution),"[3]; mouse, in vivo",decrease
same,numbers of Teffs and Th17 cells within the Tg population,"[3]; mouse, in vivo",marked reduction
same,numbers of ABM CD4+ TCR-Tg T cells,[3]; seven days posttransplantation,reduced numbers
same,islet allograft survival (in words),"[4]; mouse, in vivo",prolongs graft survival
same,mice with long-term graft function at 100 days (of n),"[4]; mouse, in vivo",3 out of 10 and 3 of 10
same,islet allograft mean survival time (MST),"[4]; oATP daily i.p. 14-15 days, rapamycin 0.1 mg/kg 10 days",22 days
same,"expression of TNF-α, IFN-γ and granzyme B",[5],reduction; also recorded: impaired activation
